Source: patent US9187472B2 (AbbVie Inc., priority 2012, dated 2015)

What was measured:
[1] = molecular target: NAMPT (human, recombinant, C-terminally His-tagged) (Homo sapiens, UniProt P43490); assay: Time-Resolved Fluorescence Resonance Energy Transfer (TR-FRET) Binding Assay of NAMPT; details: without substrates; 6.8 nM NAMPT, 200 nM probe, 3 hours equilibration
Outline: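 In a displacement format, the nicotinamide-site tracer at 200 nM competed with test compound for 6.8 nM enzyme detected via 1 nM terbium anti-His antibody; incubation lasted 3 hours at room temperature in 50 mM HEPES pH 7.5, 100 mM NaCl. Normalized 520/495 nm emission ratios gave IC50 values.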

[2] = molecular target: NAMPT (Homo sapiens, UniProt P43490); assay: TR-FRET Binding Assay of NAMPT with PRPP; details: with 200 μM PRPP and 2.5 mM ATP; 2 nM NAMPT, 2 nM probe, 16 hours equilibration
Chain of NAMPT (P43490 whole entry): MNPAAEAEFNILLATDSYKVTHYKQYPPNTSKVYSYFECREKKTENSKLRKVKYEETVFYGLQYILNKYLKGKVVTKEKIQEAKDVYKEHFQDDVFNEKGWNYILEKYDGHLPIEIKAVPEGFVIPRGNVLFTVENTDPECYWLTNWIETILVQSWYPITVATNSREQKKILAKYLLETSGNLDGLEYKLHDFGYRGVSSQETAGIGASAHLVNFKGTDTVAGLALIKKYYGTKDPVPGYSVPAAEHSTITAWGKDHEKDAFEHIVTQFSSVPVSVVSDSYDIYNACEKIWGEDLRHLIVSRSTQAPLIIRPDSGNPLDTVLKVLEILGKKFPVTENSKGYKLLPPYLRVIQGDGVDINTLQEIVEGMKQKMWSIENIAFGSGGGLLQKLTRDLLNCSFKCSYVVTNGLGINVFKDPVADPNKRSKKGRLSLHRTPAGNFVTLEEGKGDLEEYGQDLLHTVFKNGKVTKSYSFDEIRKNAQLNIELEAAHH
Outline: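 Substrate-containing variant: 200 μM PRPP plus 2.5 mM ATP are added to 2 nM NAMPT and 2 nM probe, with a 16-hour incubation ahead of TR-FRET reading.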

[3] = tested on: PC3 cells; assay: NAMPT Cell Proliferation Assay; type: cell-based; details: Homo sapiens, PC-3, 120 h, 5 days incubation, cell viability by Cell Titer Glo
Outline: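 Following overnight attachment in RPMI with 10% heat-inactivated FBS, PC3 cells at 500 per well receive compounds spanning 10 μM down to 1×10^−5 μM. Growth is assessed by luminescent viability read after 5 days.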

Chain of NAMPT (human, recombinant, C-terminally His-tagged) (P43490 whole entry): as above

Row | Compound | IC50 [1] [nM] | IC50 [2] [nM] | IC50 [3] [nM]
1 | CC1(Cn2cc(-c3ccc(C(=O)NCc4ccn5ccnc5c4)s3)cn2)CCCCO1 (stereo not drawn) [Example 465, N-(imidazo[1,2-a]pyridin-7-ylmethyl)-5-{1-[(2-methyltetrahydro-2H-pyran-2-yl)methyl]-1H-pyrazol-4-yl}thiophene-2-carboxamide] | 13.8 | 0.169 | 0.319
2 | CC(C)(C)OC(=O)N1CCC(Cn2cc(-c3ccc(C(=O)NCc4ccn5ccnc5c4)s3)cn2)CC1 [Example 466, tert-butyl 4-[(4-{5-[(imidazo[1,2-a]pyridin-7-ylmethyl)carbamoyl]thiophen-2-yl}-1H-pyrazol-1-yl)methyl]piperidine-1-carboxylate] | 74.9 | 0.287 | 4.31
3 | CC(C)CC(=O)N1CCC(c2ccc(C(=O)NCc3ccn4ccnc4c3)s2)C1 (stereo not drawn) [Example 467, N-(imidazo[1,2-a]pyridin-7-ylmethyl)-5-[1-(3-methylbutanoyl)pyrrolidin-3-yl]thiophene-2-carboxamide] | 91.1 | 0.278 | 4.02
4 | CC(C)C(=O)NC1(c2ccc(C(=O)NCc3ccn4ccnc4c3)s2)CCC1 [Example 468, N-(imidazo[1,2-a]pyridin-7-ylmethyl)-5-{1-[(2-methylpropanoyl)amino]cyclobutyl}thiophene-2-carboxamide] | > 10000 | 0.985 | 2930
5 | CC(C)CC(=O)NC1(c2ccc(C(=O)NCc3ccn4ccnc4c3)s2)CCC1 [Example 469, N-(imidazo[1,2-a]pyridin-7-ylmethyl)-5-{1-[(3-methylbutanoyl)amino]cyclobutyl}thiophene-2-carboxamide] | > 10000 | 0.432 | 3380
6 | CC[C@H](C)C(=O)NC1(c2ccc(C(=O)NCc3ccn4ccnc4c3)s2)CCC1 [Example 470, N-(imidazo[1,2-a]pyridin-7-ylmethyl)-5-(1-{[(2S)-2-methylbutanoyl]amino}cyclobutyl)thiophene-2-carboxamide] | 5580 | 0.456 | 936
7 | O=C(NC1(c2ccc(C(=O)NCc3ccn4ccnc4c3)s2)CCC1)c1ccccc1 [Example 471, 5-[1-(benzoylamino)cyclobutyl]-N-(imidazo[1,2-a]pyridin-7-ylmethyl)thiophene-2-carboxamide] | 3440 | 0.471 | 6510
8 | O=C(CC(F)(F)F)NC1(c2ccc(C(=O)NCc3ccn4ccnc4c3)s2)CCC1 [Example 472, N-(imidazo[1,2-a]pyridin-7-ylmethyl)-5-{1-[(3,3,3-trifluoropropanoyl)amino]cyclobutyl}thiophene-2-carboxamide] | 2860 | 0.334 | 963
9 | O=C(NCc1ccn2ccnc2c1)c1ccc(C2(NC(=O)C3CCOCC3)CCC2)s1 [Example 473, N-(1-{5-[(imidazo[1,2-a]pyridin-7-ylmethyl)carbamoyl]thiophen-2-yl}cyclobutyl)tetrahydro-2H-pyran-4-carboxamide] | > 10000 | 1.01 | 7850
10 | CC(C)(C)OC(=O)N1CC(Oc2ccc(C(=O)NCc3ccn4ccnc4c3)cc2)C1 [Example 474, tert-butyl 3-{4-[(imidazo[1,2-a]pyridin-7-ylmethyl)carbamoyl]phenoxyl}azetidine-1-carboxylate] | 1980 | 0.362 | 879
11 | O=C(NCc1ccn2ccnc2c1)c1ccc(-c2cnn(CC3CCC3)c2)s1 [Example 475, 5-[1-(cyclobutylmethyl)-1H-pyrazol-4-yl]-N-(imidazo[1,2-a]pyridin-7-ylmethyl)thiophene-2-carboxamide] | 9.76 | 0.169 | 6.92
12 | O=C(NCc1ccn2ccnc2c1)c1ccc(-c2cnn(CC3CCCO3)c2)o1 (stereo not drawn) [Example 476, N-(imidazo[1,2-a]pyridin-7-ylmethyl)-5-[1-(tetrahydrofuran-2-ylmethyl)-1H-pyrazol-4-yl]furan-2-carboxamide] | 70.8 | 0.194 | 9.42
13 | O=C(NCc1ccn2ccnc2c1)c1ccc(-c2cnn(CC3CCCCO3)c2)o1 (stereo not drawn) [Example 477, N-(imidazo[1,2-a]pyridin-7-ylmethyl)-5-[1-(tetrahydro-2H-pyran-2-ylmethyl)-1H-pyrazol-4-yl]furan-2-carboxamide] | 72.9 | 0.235 | 3.21
14 | O=C(NCc1ccn2ccnc2c1)c1ccc(-c2cnn(CC3CCOC3)c2)o1 (stereo not drawn) [Example 478, N-(imidazo[1,2-a]pyridin-7-ylmethyl)-5-[1-(tetrahydrofuran-3-ylmethyl)-1H-pyrazol-4-yl]furan-2-carboxamide] | 192 | 0.24 | 31.2
15 | O=C(NCc1ccn2ccnc2c1)c1ccc(-c2cnn(CC3CCCOC3)c2)o1 (stereo not drawn) [Example 479, N-(imidazo[1,2-a]pyridin-7-ylmethyl)-5-[1-(tetrahydro-2H-pyran-3-ylmethyl)-1H-pyrazol-4-yl]furan-2-carboxamide] | 63 | 0.243 | 8.08
16 | O=C(NCc1ccn2ccnc2c1)c1ccc(-c2cnn(CC3CCOCC3)c2)o1 [Example 480, N-(imidazo[1,2-a]pyridin-7-ylmethyl)-5-[1-(tetrahydro-2H-pyran-4-ylmethyl)-1H-pyrazol-4-yl]furan-2-carboxamide] | 181 | 0.342 | 7.43
17 | O=C(NCc1ccn2ccnc2c1)c1ccc(-c2cnn(CC3CCC3)c2)o1 [Example 481, 5-[1-(cyclobutylmethyl)-1H-pyrazol-4-yl]-N-(imidazo[1,2-a]pyridin-7-ylmethyl)furan-2-carboxamide] | 57.2 | 0.176 | 5.79
18 | CC1(Cn2cc(-c3ccc(C(=O)NCc4ccn5ccnc5c4)o3)cn2)COC1 [Example 482, N-(imidazo[1,2-a]pyridin-7-ylmethyl)-5-{1-[(3-methyloxetan-3-yl)methyl]-1H-pyrazol-4-yl}furan-2-carboxamide] | 76.3 | 0.259 | 2.22
19 | CC(C)(O)Cn1cc(-c2ccc(C(=O)NCc3ccn4ccnc4c3)o2)cn1 [Example 483, 5-[1-(2-hydroxy-2-methylpropyl)-1H-pyrazol-4-yl]-N-(imidazo[1,2-a]pyridin-7-ylmethyl)furan-2-carboxamide] | 130 | 0.575 | 12.4
20 | O=C(NCc1ccn2ccnc2c1)c1ccc(C2CCN(C(=O)c3ccco3)CC2)cc1 [Example 484, 4-[1-(furan-2-ylcarbonyl)piperidin-4-yl]-N-(imidazo[1,2-a]pyridin-7-ylmethyl)benzamide] | 79.5 | 0.19 | 9.59
21 | O=C(NCc1ccn2ccnc2c1)c1ccc(-c2cnn(CC3CCNCC3)c2)s1 [Example 485, N-(imidazo[1,2-a]pyridin-7-ylmethyl)-5-[1-(piperidin-4-ylmethyl)-1H-pyrazol-4-yl]thiophene-2-carboxamide] | 95.6 | 0.205 | 34.5
22 | CC(C)Cn1cc(-c2ccc(NC(=O)NCc3ccn4ccnc4c3)cc2)cn1 [Example 486, 1-(imidazo[1,2-a]pyridin-7-ylmethyl)-3-{4-[1-(2-methylpropyl)-1H-pyrazol-4-yl]phenyl}urea] | 91.7 | 0.232 | 23.3
